Measured values: ChEMBL document CHEMBL1128783, “N-Methyl and N-cyclopropylmethyl-14,14-[dithiobis[(2-oxo-2,1-ethanediyl)imino]]bis(7,8-dihydro-5-methyl-morphinone) MET-TAMO and N-CPM-MET-TAMO: Synthesis and opioid binding properties” (Bioorg Med Chem Lett, 1995)

What was measured:
[1] = biological target: Mu-type opioid receptor (Bos taurus) (UniProt P79350); experiment: Effect at dose 40 nM on wash-resistant inhibition of [3H]DAMGO binding to TPCK-treated membranes; parameters: scale not given: the % may be the effect or the level left
Sequence of Mu-type opioid receptor (Bos taurus) (P79350 whole entry): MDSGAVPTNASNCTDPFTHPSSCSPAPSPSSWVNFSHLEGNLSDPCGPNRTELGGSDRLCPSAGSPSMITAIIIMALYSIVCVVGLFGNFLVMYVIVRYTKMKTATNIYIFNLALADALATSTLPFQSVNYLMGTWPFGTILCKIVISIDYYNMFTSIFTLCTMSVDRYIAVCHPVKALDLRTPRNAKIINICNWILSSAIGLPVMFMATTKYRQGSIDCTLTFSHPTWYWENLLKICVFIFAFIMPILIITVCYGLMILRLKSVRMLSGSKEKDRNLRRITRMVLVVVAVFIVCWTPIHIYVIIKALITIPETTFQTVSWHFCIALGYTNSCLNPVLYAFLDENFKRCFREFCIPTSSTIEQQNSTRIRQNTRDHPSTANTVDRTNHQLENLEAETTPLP

Mu-type opioid receptor [2] = biological target: T1, Mu-type opioid receptor (Bos taurus, UniProt P79350); experiment: Binding affinity towards Opioid receptor mu 1 using [3H]DAMGO expressed as Kd
T1 sequence (P79350 whole entry): as above

Mu-type opioid receptor [3] = biological target: T1, Mu-type opioid receptor; experiment: Inhibitory activity against Opioid receptor mu 1 binding to bovine striatal membrane; parameters: species or system Striatum
[4] = Inhibitory activity against Opioid receptor delta 1 binding to bovine striatal membrane
[5] = Inhibitory activity against Opioid receptor kappa1 binding to bovine striatal membrane

Compound | Control [1] | Kd (Mu-type opioid receptor [2]) | IC50 (Mu-type opioid receptor [3]) | IC50 [4] | IC50 [5]
OC(CS)C(O)CS (centres undefined) | 107% |  |  |  | 
C[C@@]12Oc3c(O)ccc4c3[C@@]13CCN(CC1CC1)[C@H](C4)[C@]3(NC(=O)CSSCC(=O)N[C@@]13CCC(=O)[C@]4(C)Oc5c(O)ccc6c5[C@@]41CCN(CC1CC1)[C@@H]3C6)CCC2=O |  | 0.4 nM | 1.4 nM |  | 
CN1CC[C@]23c4c5ccc(O)c4O[C@H]2C(=O)CC[C@@]3(NC(=O)CSSCC(=O)N[C@@]23CCC(=O)[C@@H]4Oc6c(O)ccc7c6[C@@]42CCN(C)[C@@H]3C7)[C@H]1C5 |  |  |  | 11 nM | 41 nM
O=C(CSSCC(=O)N[C@@]12CCC(=O)[C@@H]3Oc4c(O)ccc5c4[C@@]31CCN(CC1CC1)[C@@H]2C5)N[C@@]12CCC(=O)[C@@H]3Oc4c(O)ccc5c4[C@@]31CCN(CC1CC1)[C@@H]2C5 |  |  | 3.9 nM | 24 nM | 10 nM
CN1CC[C@]23c4c5ccc(O)c4O[C@@]2(C)C(=O)CC[C@@]3(NC(=O)CSSCC(=O)N[C@@]23CCC(=O)[C@]4(C)Oc6c(O)ccc7c6[C@@]42CCN(C)C3C7)C1C5 |  |  | 2.9 nM |  | 
